In the NIST ThermoML archive (doi:10.1016/j.fluid.2014.01.019):
± gives the expanded uncertainty stated by the source.

Test: xn = mol fraction of the nth substance listed
Details: 101 kPa, Liquid; for mass density: Vibrating tube method; for speed of sound: Frequency=2 MHz, Linear variable-path acoustic interferometer

## Cc1cccc(Cl)c1 [3-chlorotoluene] + OCc1ccccc1
298.15 K, x2 = 0.0583
  mass density: 1065.82 ± 0.15 kg/m3
298.15 K, x2 = 0.1107
  mass density: 1064.36 ± 0.15 kg/m3
298.15 K, x2 = 0.1903
  mass density: 1062.34 ± 0.15 kg/m3
298.15 K, x2 = 0.2401
  mass density: 1061.05 ± 0.15 kg/m3
298.15 K, x2 = 0.3028
  mass density: 1059.47 ± 0.15 kg/m3
298.15 K, x2 = 0.3703
  mass density: 1057.61 ± 0.15 kg/m3
298.15 K, x2 = 0.4442
  mass density: 1055.83 ± 0.15 kg/m3
298.15 K, x2 = 0.5405
  mass density: 1053.04 ± 0.15 kg/m3
298.15 K, x2 = 0.6285
  mass density: 1050.88 ± 0.15 kg/m3
298.15 K, x2 = 0.7019
  mass density: 1049.03 ± 0.15 kg/m3
298.15 K, x2 = 0.7558
  mass density: 1047.64 ± 0.15 kg/m3
298.15 K, x2 = 0.8109
  mass density: 1046.31 ± 0.15 kg/m3
298.15 K, x2 = 0.8546
  mass density: 1045.2 ± 0.14 kg/m3
298.15 K, x2 = 0.8946
  mass density: 1044.04 ± 0.14 kg/m3
298.15 K, x2 = 0.9498
  mass density: 1042.49 ± 0.14 kg/m3
303.15 K, x2 = 0.0583
  speed of sound: 1298 ± 8 m/s
  mass density: 1061.18 ± 0.15 kg/m3
303.15 K, x2 = 0.1107
  speed of sound: 1316 ± 8 m/s
  mass density: 1059.84 ± 0.15 kg/m3
303.15 K, x2 = 0.1903
  speed of sound: 1340 ± 8 m/s
  mass density: 1057.86 ± 0.15 kg/m3
303.15 K, x2 = 0.2401
  speed of sound: 1356 ± 8 m/s
  mass density: 1056.6 ± 0.15 kg/m3
303.15 K, x2 = 0.3028
  speed of sound: 1374 ± 8 m/s
  mass density: 1055.2 ± 0.15 kg/m3
303.15 K, x2 = 0.3703
  speed of sound: 1394 ± 9 m/s
  mass density: 1053.44 ± 0.15 kg/m3
303.15 K, x2 = 0.4442
  speed of sound: 1414 ± 9 m/s
  mass density: 1051.49 ± 0.15 kg/m3
303.15 K, x2 = 0.5405
  speed of sound: 1440 ± 9 m/s
  mass density: 1049.21 ± 0.15 kg/m3
303.15 K, x2 = 0.6285
  speed of sound: 1462 ± 9 m/s
  mass density: 1046.99 ± 0.15 kg/m3
303.15 K, x2 = 0.7019
  speed of sound: 1477 ± 9 m/s
  mass density: 1045.09 ± 0.15 kg/m3
303.15 K, x2 = 0.7558
  speed of sound: 1487 ± 9 m/s
  mass density: 1043.62 ± 0.15 kg/m3
303.15 K, x2 = 0.8109
  speed of sound: 1494 ± 9 m/s
  mass density: 1042.35 ± 0.14 kg/m3
303.15 K, x2 = 0.8546
  speed of sound: 1501 ± 9 m/s
  mass density: 1041.4 ± 0.14 kg/m3
303.15 K, x2 = 0.8946
  speed of sound: 1504 ± 9 m/s
  mass density: 1040.31 ± 0.14 kg/m3
303.15 K, x2 = 0.9498
  speed of sound: 1510 ± 9 m/s
  mass density: 1038.83 ± 0.14 kg/m3
308.15 K, x2 = 0.0583
  mass density: 1056.8 ± 0.15 kg/m3
308.15 K, x2 = 0.1107
  mass density: 1055.47 ± 0.15 kg/m3
308.15 K, x2 = 0.1903
  mass density: 1053.42 ± 0.15 kg/m3
308.15 K, x2 = 0.2401
  mass density: 1052.17 ± 0.15 kg/m3
308.15 K, x2 = 0.3028
  mass density: 1050.6 ± 0.15 kg/m3
308.15 K, x2 = 0.3703
  mass density: 1048.89 ± 0.15 kg/m3
308.15 K, x2 = 0.4442
  mass density: 1047.05 ± 0.15 kg/m3
308.15 K, x2 = 0.5405
  mass density: 1044.67 ± 0.15 kg/m3
308.15 K, x2 = 0.6285
  mass density: 1042.53 ± 0.15 kg/m3
308.15 K, x2 = 0.7019
  mass density: 1040.75 ± 0.14 kg/m3
308.15 K, x2 = 0.7558
  mass density: 1039.43 ± 0.14 kg/m3
308.15 K, x2 = 0.8109
  mass density: 1038.15 ± 0.14 kg/m3
308.15 K, x2 = 0.8546
  mass density: 1037.11 ± 0.14 kg/m3
308.15 K, x2 = 0.8946
  mass density: 1036.18 ± 0.14 kg/m3
308.15 K, x2 = 0.9498
  mass density: 1034.89 ± 0.14 kg/m3
313.15 K, x2 = 0.0583
  speed of sound: 1294 ± 8 m/s
  mass density: 1052.23 ± 0.15 kg/m3
313.15 K, x2 = 0.1107
  speed of sound: 1304 ± 8 m/s
  mass density: 1050.83 ± 0.15 kg/m3
313.15 K, x2 = 0.1903
  speed of sound: 1321 ± 8 m/s
  mass density: 1048.82 ± 0.15 kg/m3
313.15 K, x2 = 0.2401
  speed of sound: 1331 ± 8 m/s
  mass density: 1047.95 ± 0.15 kg/m3
313.15 K, x2 = 0.3028
  speed of sound: 1343 ± 8 m/s
  mass density: 1046.35 ± 0.15 kg/m3
313.15 K, x2 = 0.3703
  speed of sound: 1356 ± 8 m/s
  mass density: 1044.54 ± 0.15 kg/m3
313.15 K, x2 = 0.4442
  speed of sound: 1371 ± 8 m/s
  mass density: 1042.9 ± 0.15 kg/m3
313.15 K, x2 = 0.5405
  speed of sound: 1389 ± 8 m/s
  mass density: 1040.69 ± 0.14 kg/m3
313.15 K, x2 = 0.6285
  speed of sound: 1409 ± 9 m/s
  mass density: 1038.52 ± 0.14 kg/m3
313.15 K, x2 = 0.7019
  speed of sound: 1422 ± 9 m/s
  mass density: 1036.95 ± 0.14 kg/m3
313.15 K, x2 = 0.7558
  speed of sound: 1435 ± 9 m/s
  mass density: 1035.23 ± 0.14 kg/m3
313.15 K, x2 = 0.8109
  speed of sound: 1446 ± 9 m/s
  mass density: 1034.05 ± 0.14 kg/m3
313.15 K, x2 = 0.8546
  speed of sound: 1455 ± 9 m/s
  mass density: 1033.02 ± 0.14 kg/m3
313.15 K, x2 = 0.8946
  speed of sound: 1462 ± 9 m/s
  mass density: 1032.43 ± 0.14 kg/m3
313.15 K, x2 = 0.9498
  speed of sound: 1474 ± 9 m/s
  mass density: 1030.91 ± 0.14 kg/m3
